Entries after “also recorded” stand apart in the source; their conditions may differ.
Legend:
[1] = target: T1, ternary complex consisting of GFP-ABD-L253P, Lifeact-mCherry, and actin (Homo sapiens, UniProt O15020, L253P); experiment: Primary live-cell time-resolved FRET assay (GFP-ABD-L253P plus Lifeact-mCherry); assay type: cell-based; conditions: for effect on FRET in primary screen (Hit, 4SD threshold): LOPAC compounds 10 μM, 120 min
T1 construct: L252P β-III-spectrin (human) ABD residues 1-284; expressed in transfected cells; host or cells: HEK293-6E, pTT5 vector, transient

[2] = target: T2, Lifeact-mCherry binding to F-actin (Oryctolagus cuniculus, UniProt P68135); experiment: F-actin and Lifeact-mCherry co-sedimentation assay; design: species or system New Zealand white rabbit (Oryctolagus cuniculus)
T2 construct: Actin was purified from acetone powder derived from the psoas muscle; made in house; host or cells: actin from rabbit psoas muscle; Lifeact-mCherry from E. coli, pE-SUMOpro
Protocol: (§1) Actin was purified from acetone powder derived from the psoas muscle of New Zealand white rabbit (Oryctolagus cuniculus). Filamentous (F)-actin was stored for up to 3 days on ice before use in binding assays. Within an hour of the binding assay, the F-actin was clarified at 100,000×g at 4° C. for 10 min prior to setting up binding assays. The L253P β-III-spectrin ABD was expressed in E. coli BL21(DE3) (Novagen). The ABD was purified and the His-SUMO tag proteolytically removed, as previously described, except size-exclusion chromatography was not performed due to the high purity of the ABD protein. Lifeact-mCherry protein was similarly prepared. A Bradford assay was performed to determine clarified F-actin and ABD protein concentrations.
(§2) F-actin and ABD binding assays were performed as previously described. In brief, binding assays used 1 μM ABD protein, 1 μM F-actin and 1-50 μM compound (as indicated) or DMSO control for a total reaction volume of 60 μL in F-buffer containing 10 mM Tris, pH 7.5, 150 mM NaCl, 0.5 mM ATP, 2 mM MgCl2, and 1 mM DTT. Following 30 min incubation at room temperature (21° C.). F-actin was pelleted using centrifugation at 100,000×g at 25° C. for 30 min. Unbound ABD in the supernatant was measured following SDS-PAGE and Coomassie blue staining in accord. In addition, control co-sedimentations assays that lacked actin were performed to test if compounds cause ABD aggregation. F-actin and Lifeact-mCherry binding assays were undertaken with 2 μM Lifeact-mCherry, 30 μM F-actin and 1-50 μM compound (as indicated) or DMSO control for a total reaction volume of 80 μL in F-buffer. For a no-actin binding control, an assay sample with no F-actin was also set up. Binding reactions were allowed to reach equilibrium at room temperature (21° C.) for 30 min and then F-actin was pelleted by centrifugation at 100,000×g at 25° C. for 30 min. The amount of unbound Lifeact-mCherry was sampled by loading 7 μL of spin supernatant on a low volume black bottom 384-well plate (Greiner). Amount of mCherry was determined by acquiring fluorescence spectrum peak intensity at ˜600 nm using a spectral unmixing plate reader (Fluorescence Innovations, Inc) equipped with a 532 nm laser (Laserglow Technologies, Ontario, Canada) for excitation, 532 nm longpass filter for emission, and PMT for emission detection. The fraction of Lifeact-mCherry bound to F-actin was determined by subtracting from one the fraction of supernatant fluorescence intensity relative to the no-actin control sample, using the following equation:
[formula] • Where Fcontrol/DMSO is the peak mCherry fluorescence of assay samples containing compound or DMSO control, and Fno-actin is the peak mCherry fluorescence of assay samples that contained no F-actin. 2.9 Trypan Blue Cell Viability Assays

[3] = test system: HEK293-6E cells; experiment: Trypan blue cell viability assay; assay type: cell-based
Protocol: HEK293-6E cell viability was measured using trypan blue (0.03%) staining and a Countess Automated Cell counter (Invitrogen). Non-transfected HEK293-6E cells were spun at 100×g for 5 min at 21° C., and resuspended in 10 mL of PBS. The centrifugation and resuspension were repeated twice more. Final cell concentration was 1×10^6 cells/mL. Cells were incubated with 2% DMSO, or 3-50 μM compound (as indicated) for 3 hrs at room temperature (21° C.). After addition of 100 μL of 0.06% trypan blue solution in PBS, 10 μL was loaded on a slide and injected into the cell counter, and cell viability was measured.

[4] = test system: mammalian cells; conditions: cited from earlier work
[5] = target: T3, ABD-L253P (Homo sapiens, UniProt O15020, L253P); experiment: Sedimentation of ABD L253P without actin (aggregation); conditions: 10 μM
T3 construct: His-SUMO (cleaved yes); made in house; host or cells: E. coli BL21(DE3), pE-SUMOpro
Protocol: as §2, with “equation: […]” for “equation:”
In addition to a reduction in cell viability, the primary and counter screen may be sensitive to compounds that promote ABD-L253P protein aggregation. […] Our ABD-L253P to actin co-sedimentation assay is unlikely to be sensitive to ABD aggregation, as it is set up to monitor maximal sedimentation of ABD-L253P with actin at ˜90% ABD-L253P co-sedimenting. To directly measure the impact of 10 μM Hit compounds on ABD aggregation, we repeated the ABD-actin co-sedimentation without actin present.

[6] = target: T4, ABD-L253P (L253P β-III-spectrin ABD) binding to F-actin (Homo sapiens, UniProt O15020, L253P); experiment: F-actin and ABD co-sedimentation assay; conditions: 50 μM, 1 μM ABD, 1 μM F-actin
T4 construct: His-SUMO (cleaved yes); made in house; host or cells: E. coli BL21(DE3), pE-SUMOpro; actin from rabbit psoas muscle
Protocol: as §1
as §2, with “F-actin and Lifeact-mCherry binding assays were undertaken with 2 μM Lifeact-mCherry, 30 μM F-actin and 1-50 μM compound (as indicated) or DMSO control for a total reaction volume of 80 μL in F-buffer. For a no-actin binding control, an assay sample with no F-actin was also set up. Binding reactions were allowed to reach equilibrium at room temperature (21° C.) for 30 min and then F-actin was pelleted by centrifugation at 100,000×g at 25° C. for 30 min. The amount of unbound Lifeact-mCherry was sampled by loading 7 μL of spin supernatant on a low volume black bottom 384-well plate (Greiner).” left out, “equation: […]” for “equation:”

[7] = target: T5, GFP-ABD-L253P and mCherry (non-specific FRET) in HEK293-6E cells (Homo sapiens, UniProt O15020, L253P); experiment: Counter FRET assay, non-specific FRET (GFP-ABD-L253P plus mCherry); assay type: cell-based; conditions: 0.1% Triton X-100, cell lysis
T5 construct: L252P β-III-spectrin (human) ABD residues 1-284; expressed in transfected cells; host or cells: HEK293-6E, pTT5 vector, transient
Protocol: At 2×10^6 cells/mL, HEK293-6E cells were transfected with GFP-ABD (2.4 μg), Lifeact-mCherry (2.4-16.8 μg), mCherry (1.2-16.8 μg), and/or pTT5 (0.8-17.6 μg) using the 293fectin protocol (Thermo Fisher Scientific) with 20 μg total DNA. The cells were harvested 24 hours later by centrifugation at 100×g for 5 min, and then washed twice with PBS. Cell viability and concentration were determined using trypan blue assay and a Countess cell counter (Invitrogen).
Using a Multidrop Combi liquid dispenser (Thermo Fisher Scientific), 10^6 cells/mL were dispersed into 1536-well and 384-well plates as 5 or 50 μL aliquots, respectively. For control and tool compound plates, 100 nL of DMSO or potential tool compound was loaded using the Mantis (Formulatrix). […] Two to three hours after sample loading, fluorescence lifetime measurements were performed using high-throughput fluorescence plate-readers provided by Photonic Pharma LLC (MN, USA), including one detecting fluorescence lifetime and another detecting fluorescence spectra, as described previously.
To develop a biosensor that monitors the binding of mutant L253P β-III-spectrin to actin filaments in live cells, a fluorescence resonance energy transfer (FRET) approach was tested. […] To measure the non-specific component to our FRET readout, we concurrently tested expression of mCherry in place of Lifeact-mCherry. […]

T3 sequence (O15020 1-284 L253P): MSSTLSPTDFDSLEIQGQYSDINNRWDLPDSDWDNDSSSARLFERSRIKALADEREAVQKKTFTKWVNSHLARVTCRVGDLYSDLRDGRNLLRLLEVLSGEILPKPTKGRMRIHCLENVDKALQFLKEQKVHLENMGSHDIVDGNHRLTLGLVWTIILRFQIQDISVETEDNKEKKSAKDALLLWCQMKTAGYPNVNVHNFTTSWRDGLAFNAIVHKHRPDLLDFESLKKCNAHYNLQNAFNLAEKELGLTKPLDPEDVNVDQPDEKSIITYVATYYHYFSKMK
T1 sequence (O15020 1-284 L253P, one chain of several): as the sequence (O15020 1-284 L253P) above
T4 sequence (O15020 1-284 L253P): as above
T5 sequence (O15020 1-284 L253P): as above

Molecule | effect on FRET in primary screen (Hit, 4SD threshold) [1] | effect on Lifeact-mCherry binding with actin ([2]; 10 μM) | ABD L253P aggregation (pelleting without actin) [5] | also measured
CC(C)(C)c1ccc(/C=C/C(=O)Nc2ccc3c(c2)OCCO3)cc1 [AMG 9810] | decrease FRET |  | increases ABD pelleting; also recorded: promote aggregation | 
CC(C)(Sc1ccc(CCN(CCCCC2CCCCC2)C(=O)NC2CCCCC2)cc1)C(=O)O [GW7647] | decrease FRET | decreased actin-Lifeact co-sedimentation; also recorded: reduce Lifeact-mCherry binding with actin | increases ABD pelleting; also recorded: promote aggregation | effect on HEK293-6E cell viability ([3]; 10 μM, 3 hr incubation): dramatically reduced cell viability; also recorded: reduces HEK293-6E cell viability
CCCc1c(-c2ccc(O)cc2)nn(-c2ccc(O)cc2)c1-c1ccc(O)cc1 [PPT] | decrease FRET |  | increases ABD pelleting; also recorded: promote aggregation | 
CCCCCCCC/C=C\CCCCCCCC(=O)NCc1ccc(O)c(OC)c1 [olvanil] | decrease FRET |  | increases ABD pelleting; also recorded: promote aggregation | 
[H]/N=C(/NCCCCC)N/N=C/c1c[nH]c2ccc(OC)cc12 [tegaserod] |  |  |  | reduction of total FRET ([1]; 50 μM, HEK293-6E cells, relative to DMSO): 83%; effect on ABD-L253P binding to actin [6]: did not alter; also recorded: no significant effect; effect on Lifeact-mCherry binding with actin ([2]; 50 μM): did not alter and not; decrease in cell viability ([3]; 50 μM, 3 hrs): 92%; effect on HEK293-6E cell viability ([3]; 50 μM, 3 hrs): greatly diminished cell viability; also recorded: abolishes HEK293-6E cell viability
Triton X-100 |  |  |  | effect on total FRET ([1]; 0.1% Triton X-100, cell lysis): abolished; effect on non-specific FRET [7]: abolished

Further lines, with some results ahead:

effect on FRET in primary screen (Hit, 4SD threshold) [1] | Molecule | effect on Lifeact-mCherry binding with actin ([2]; 10 μM) | ABD L253P aggregation (pelleting without actin) [5] | also measured
decrease FRET | CCCCCCCCCCCCCCCC(=O)OC(CC(=O)[O-])C[N+](C)(C)C (racemic) [palmitoyl-DL-carnitine] | decreased actin-Lifeact co-sedimentation; also recorded: reduce Lifeact-mCherry binding with actin |  | effect on HEK293-6E cell viability ([3]; 10 μM, 3 hr incubation): dramatically reduced cell viability; also recorded: reduces HEK293-6E cell viability; reported effect on cell viability [4]: reported to reduce cell viability
decrease FRET | O=C(O)c1cc([N+](=O)[O-])ccc1NCCCc1ccccc1 [NPPB] | decreased actin-Lifeact co-sedimentation; also recorded: reduce Lifeact-mCherry binding with actin | promote aggregation | ABD L253P aggregation (pelleting without actin) ([5]; listed as NBBP): increases ABD pelleting
